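In this assay, cells in 96-well plates receive the compound at five concentrations for 48 hours. Endpoints are linearly interpolated between the surrounding concentrations. Abbreviation: GI50, concentration required for 50% inhibition of growth.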 The source made the active and inactive calls. Rule as the data show it: active = GI50 up to about 1.1 µM and inactive = higher.

What all share (test): growth of human tumour cells (NCI), 48 h
The test system of assay [1] is RXF 393.
The test system of assay [2] is Hs-578T.
In assay [3] the test system is IGROV-1.
Assay [4] concerns UACC-257.
The subject of assay [5] is OVCAR-5.
Assay [6] concerns SR.
For assay [7], the system named is NCI/ADR-RES.
Assay [8] relates to SK-MEL-28.
Assay [9] relates to NCI-H460.
In assay [10] the test system is SF-295.
Assay [11] deals with HT-29.
Assay [12] has as its system U-251.
In assay [13] the test system is SNB-19.
Assay [14] deals with T47D.
Assay [15] has as its system SF-268.
Assay [16] has as its system SW-620.
The test system of assay [17] is EKVX.
Assay [18] deals with SNB-75.
Assay [19] deals with CAKI-1.
The subject of assay [20] is BT-549.

`CC(=O)OC1C2CCC3CC2C2(SCCS2)C31` (stereo unspecified): the GI50 in [1], in assay [2], in assay [3], in [4], in assay [5] and in assay [6] was > 100 µM (inactive) throughout. The GI50 in assay [7], in assay [8], in [9], in [10], in assay [11] and in assay [12] was > 100 µM (inactive) throughout. Further, the GI50 in [13], in assay [14], in assay [15], in assay [16] and in assay [17] was > 100 µM (inactive) each time.

As for `N#CCCN(CCC#N)c1ccc(/C=N\c2ccc(F)cc2)cc1`, the GI50 is 73.6 µM (inactive) in [18]; > 57 µM (inactive) in assay [1]; 45.6 µM (inactive) in [3]; > 68.5 µM (inactive) in [19]; > 100 µM (inactive) in assay [4]; 58.9 µM (inactive) in assay [6]. Further, the GI50 was > 48.5 µM (inactive) in assay [8]; > 100 µM (inactive) in assay [20]; 7.01 µM (inactive) in assay [9]; 12.3 µM (inactive) in [10]; > 100 µM (inactive) in [12]; > 100 µM (inactive) in assay [13]. The GI50 in assay [14] is > 100 µM (inactive); in assay [15] it was 35.2 µM (inactive); in assay [16], 19.3 µM (inactive); in [17], > 100 µM (inactive).

With `COc1ccc2nc3ccccc3c(NCCN(C)CCCl)c2c1`, the GI50 in assay [18] was 1.04 µM (active); in [1], 0.592 µM (active); in assay [3], 0.469 µM (active); in [19], 0.205 µM (active); in assay [4], 1.64 µM (inactive); in [5] it was 1.03 µM (active). Besides, the GI50 in assay [6] was 0.0303 µM (active); in assay [7] it was 0.647 µM (active); in [8], 1.69 µM (inactive); in assay [20] it was 0.9 µM (active); in assay [9], 0.322 µM (active); in [10] it was 0.728 µM (active). For the same compound, the GI50 in assay [11] is 0.377 µM (active); in assay [12], 0.541 µM (active); in [13] it was 1.12 µM (inactive); in [15], 0.55 µM (active); in assay [16], 0.175 µM (active); in assay [17], 1.51 µM (inactive).

On to `CC(=O)c1nc(C#N)c(N)o1`, for which the GI50 in assay [18], in assay [1], in assay [2], in assay [3], in assay [19] and in [4] was > 100 µM (inactive) each time. The GI50 in assay [5], in [7], in assay [8], in assay [9], in assay [10] and in [11] was > 100 µM (inactive) throughout. In addition, the GI50 in [12], in assay [13], in assay [14], in assay [15], in assay [16] and in assay [17] was > 100 µM (inactive) each time.

For the compound `CCOC(=O)/C(C)=C\[C@@]1(C)O[C@@H](C)[C@@](C)(OC(C)=O)[C@@H]1OC(C)=O`, the GI50 is 27 µM (inactive) in assay [2]; 37.7 µM (inactive) in assay [3]; 33 µM (inactive) in [19]; 28.2 µM (inactive) in assay [4]; > 100 µM (inactive) in assay [5]; 58.3 µM (inactive) in assay [6]. Besides, the GI50 was 30.2 µM (inactive) in assay [7]; > 100 µM (inactive) in assay [8]; 43 µM (inactive) in assay [9]; 36.8 µM (inactive) in assay [10]; 40.6 µM (inactive) in assay [11]; 64.1 µM (inactive) in [12]. Moreover, the GI50 in assay [13] is > 100 µM (inactive); in assay [14] it was 19.9 µM (inactive); in assay [15], 39.3 µM (inactive); in assay [16], 67.5 µM (inactive); in assay [17], 36.1 µM (inactive).

Values taken from ChEMBL document CHEMBL1201862, “PubChem BioAssay data set” (2004).
